Test results as given in patent US20230331792A1, “NEW MULTI-FUNCTIONAL OLIGOPEPTIDES” (ENLITISA (SHANGHAI) PHARMACEUTICAL CO., LTD., priority 2019, published 2023).
Square brackets hold non-standard residues; d marks the D form. Ends that are not written are not given here. Dopa = N[C@@H](Cc1ccc(O)c(O)c1)C(=O)O; Hyp = O=C(O)[C@@H]1C[C@@H](O)CN1

How the values were obtained:
[1] = test system: Sprague Dawley (SD) rats; assay: Croton oil-induced anal swelling model in rats I (Evans blue content); format: in vivo; details: gel 0.5 and 1 mg/g, 200 μL twice a day for three days
Procedure: A croton oil mixture was prepared by mixing one part distilled water, four parts of pyridine (Nanjing Chemical Reagent Co., Ltd.), five parts of ether (China Pharmaceutical Group Chemical Reagents Co., Ltd.) and ten parts of 6% croton oil (Shanghai Yuanye Biotechnology Co., Ltd.) ether solution.
6-8 weeks old Sprague Dawley (SD) rats with average body weights of 180-220 g were supplied by Changzhou Cvens Experimental Animal Co. Ltd. (Changzhou, Jiangsu Province, China), half male and half female. Prior to any experiments being conducted, rats were housed under standardized conditions (at a constant temperature of 22±2° C., with alternating 12-hour periods of light and darkness) and were fed on a standard mouse diet with water, for about a week.
56 rats were randomly divided into 7 groups (as shown in Table 11 below), with 8 rats in each group. Compound A, Compound B and MaYinglong hemorrhoids ointment were dissolved at concentrations indicated in Table 11 below (L=low dose, M=medium dose, H=high dose).
The rats were anesthetized by isoflurane (China Pharmaceutical Group Chemical Reagents Co., Ltd.) inhalation. 75% alcohol cotton ball was used to disinfect the skin around the anus. […]
All samples were transferred to a 55° C. water bath or a heat block. […] Absorbance was measured at 610 nm, using 500 μL of formamide as a blank. […]

[2] = test system: C57BL/6 mice; assay: Air pouch model (carrageenan-induced acute inflammation); format: in vivo; set-up: key to Inflammation score / Edema score: 1 = mild, 2 = moderate, 3 = severe
Procedure: Healthy adult male C57BL/6 mice weighing between 20 and 30 g were supplied by Changzhou Cvens Experimental Animal Co. Ltd. Prior to any experiments being conducted, the mice were housed under standardized conditions (at a constant temperature or 22±2° C., with alternating 12-hour periods of light and darkness), and were fed on a standard mouse diet with water, for about a week. The mice were randomly divided into 9 groups as described in Table 4, with 7 mice in each group.
General anaesthesia was induced using intraperitoneal delivery of 3% chloral hydrate (Sinopharm Chemical Reagent Co., Ltd., Shanghai, China); 1 mL/10 g of body weight). The hair of the entire dorsum was shaved and depilated one day before sterile air injection.
Air pouches were produced by subcutaneous injection of sterile air (5 mL) into the intrascapular area of the mice. After three days, another injection of air (3 mL) was performed to maintain the pouches. In order to induce acute inflammation, three days after the second injection, animals received an injection of sterile carrageenan solution (CP Kelco, Taixing, Jiangsu Province, China; 1%, 0.5 mL; produced by adding 0.1 g of carrageenan powder into a beaker containing 10 mL of 0.9% saline solution and stirring). Mice were pre-treated with test samples or vehicle 1 hour before and 23 hours after the carrageenan injection into the subcutaneous air pouch. Animals were sacrificed 24 hours after the carrageenan injection.
Skin biopsies were taken from the air pouches. A part of the biopsy was fixed in formalin (produced by adding ultra-pure water to 50 mL of a 40% formaldehyde solution (Nanchang Rain Dew Experimental Equipment Co., Ltd., Nanchang, […] Provence, China) up to a total volume of 500 mL) and analyzed by histological embedding in paraffin wax, sectioning and staining.
The histological specimens were analyzed, and an inflammation score and an edema score were estimated. The inflammation scores were estimated by observing heamatoxylin and eosin (HE) stained slices under an optical microscope. Scores (between 1 to 3 points) were given according to the perceived inflammation level (e.g. in cases where only a small amount of inflammatory cells scattered in the area: 1 point was given (mild); in cases where many inflammatory cells were observed: 2 points were given (moderate); and, in cases with diffuse infiltration: 3 points were given (severe)). A similar scoring system was employed for edema levels (3 points for most severe and 1 point for mild) after overall observation.
After conducting some preliminary experiments to validate the model, an experiment was conducted in which mice were treated by administering test samples or vehicle in accordance with Table 4 below. Compound A and Compound B were dissolved in saline at concentrations indicated in Table 4 below (L=low dose, M=medium dose, H=high dose).
Compound A and Compound B were synthesized as described in Examples 8 and 7 above, respectively. The peptide powders were stored at −20° C. prior to use. Dexamethasone (Dex) was obtained from Shanghai Aladdin Bio-Chem Technology Co., Ltd., Shanghai, China.

## {[(Ala-Lys-Pro-Ser-Tyr-Hyp-Hyp-Thr-DOPA-Lys)2-Lys]2-Lys}2-Lys (AKPSY[Hyp][Hyp]T[Dopa]KKKK; also: branched lysine dendrimer {[(peptide)2-Lys]2-Lys}2-Lys) [Compound B]
[1]
  inflammatory swelling, EB content in rectal and anal tissues (FIG. 5): may reduce inflammatory swelling caused by croton oil application
[2]; low dose 50 μg/mouse
  Edema score: 2.00
  Inflammation score: 1.83
  Sum of the scores: 3.83
[2]; medium dose 250 μg/mouse
  Edema score: 2.14
  Inflammation score: 1.80
  Sum of the scores: 3.94

## {[(Dopa-Ala-Lys-Pro-Ser-Tyr-Hyp-Hyp-Thr-Tyr-Lys)2-Lys]2-Lys}2-Lys ([Dopa]AKPSY[Hyp][Hyp]TYKKKK; also: branched lysine dendrimer {[(peptide)2-Lys]2-Lys}2-Lys) [Compound A]
[1]
  inflammatory swelling, EB content in rectal and anal tissues (FIG. 5): may reduce inflammatory swelling caused by croton oil application
[2]; low dose 50 μg/mouse
  Edema score: 1.71
  Inflammation score: 1.86
  Sum of the scores: 3.57
[2]; medium dose 250 μg/mouse
  Edema score: 1.57
  Inflammation score: 1.57
  Sum of the scores: 3.14
